From US11939583B2, “Method of producing autotrophic organisms with altered photorespiration and improved CO2 fixation” (Max-Planck-Gesellschaft zur Förderung der Wissenschaften …, priority 2018, dated 2024)

Legend:
[1] = target: T1, β-hydroxyaspartate aldolase (BHAA) (Paracoccus denitrificans, UniProt A1B8Z1); assay: Enzyme assay, kinetic parameters of BHAA; assay type: biochemical, Paracoccus denitrificans DSM 413; conditions: 30° C., pH 7.5, glycine with 5 mM glyoxylate, glyoxylate with 20 mM glycine
T1 construct: His-tag (N); made in house; host or cells: E. coli BL21 AI
T1 sequence (A1B8Z1 1-387): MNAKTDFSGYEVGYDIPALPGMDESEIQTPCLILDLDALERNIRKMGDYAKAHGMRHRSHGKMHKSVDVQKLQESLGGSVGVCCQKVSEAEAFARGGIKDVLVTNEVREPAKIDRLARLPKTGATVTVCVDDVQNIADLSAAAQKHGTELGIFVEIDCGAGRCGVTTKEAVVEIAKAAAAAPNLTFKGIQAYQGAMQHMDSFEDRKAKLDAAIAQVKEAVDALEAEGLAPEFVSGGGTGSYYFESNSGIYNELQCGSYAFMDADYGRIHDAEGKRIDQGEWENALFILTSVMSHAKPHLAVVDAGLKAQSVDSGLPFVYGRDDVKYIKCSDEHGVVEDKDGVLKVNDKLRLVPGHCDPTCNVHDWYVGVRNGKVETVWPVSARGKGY
Protocol: (§1) In all enzyme assays, the oxidation of NADH or NADPH was followed at 340 nm or 360 nm on a Cary 60 UV-Vis photospectrometer (Agilent, Santa Clara, USA) in quartz cuvettes with a path length of 1 mm or 10 mm (Hellma Optik GmbH, Jena, Germany).
The reaction mixture contained 100 mM potassium phosphate buffer pH 7.5, 0.1 mM PLP, 0.2 mM NADH, 0.5 mM MgCl2, varying amounts of the respective substrates, and 4 nM BHAA. BHAD and ISRed were added in excess as coupling enzymes. […] To determine the kinetic parameters with (2R,3S)-β-hydroxyaspartate as substrate, the same assay mixture was used and GhrA was added in excess as coupling enzyme to convert glyoxylate into glycolate. To determine the kinetic parameters with D-threonine as substrate, the same assay mixture was used and alcohol dehydrogenase from Saccharomyces cerevisiae (Sigma-Aldrich, St. Louis, USA) was added in excess as coupling enzyme to convert acetaldehyde into ethanol.

[2] = target: T2, β-hydroxyaspartate dehydratase (BHAD) (Paracoccus denitrificans, UniProt A1B8Z2); assay: Enzyme assay, kinetic parameters of BHAD; assay type: biochemical, Paracoccus denitrificans DSM 413; conditions: 30° C., pH 7.5, ISRed as coupling enzyme
T2 construct: His-tag (N); made in house; host or cells: E. coli BL21 AI
Protocol: as §1
The enzyme assay to determine the kinetic parameters of BHAD was performed at 30° C. in a total volume of 300 μl. The reaction mixture contained 100 mM phosphate buffer pH 7.5, 0.1 mM PLP, 0.2 mM NADH, varying amounts of the substrate (2R,35)-β-hydroxyaspartate, and 29 nM BHAD. ISRed was added in excess as coupling enzyme to convert iminosuccinate into L-aspartate. (2R,3S)-β-Hydroxyaspartate was custom-synthesized by NewChem (Newcastle upon Tyne, United Kingdom), and was determined to be >95% pure by NMR analysis.

Pbhc-BhcR complex = assay: Electrophoretic mobility shift assay, effect of glyoxylate on complex formation; assay type: binding, P. denitrificans DSM 413; conditions: increasing concentrations of glyoxylate (0.01-1 mM), EMSA, FIG. 5
Description: Fluorescently labeled DNA fragments for electrophoretic mobility shift assays (EMSA) were generated by PCR from genomic DNA of P. denitrificans DSM 413. For the Pbhc regulatory region, primers Pbhc_fw and Pbhc_rev-dye were used to generate a 238-bp fragment containing the putative Pbhc promoter. The primers AGAT-Fw and AGAT_rev-dye were used to generate a 255-bp fragment containing a fragment of the AGAT gene as negative controle. Pbhc rev dye and AGAT rev dye were 5′-labelled with the Dyomics 781 fluorescent dye (Microsynth AG, Balgach, Switzerland). Binding reactions between the DNA fragments (0.025 pmol), various amounts of the purified protein BhcR (400x/2,000x/4,000x/10,000x/20,000x/40,000x molar excess), and various concentrations of glyoxylate (0.01/0.05/0.1/0.2/0.5/1 mM final concentration) were performed in buffer A (20 mM potassium phosphate pH 7.0, 1 mM DTT, 5 mM MgCl2, 50 mM KCl, 15 μg mL^−1 bovine serum albumin, 50 μg mL^−1 herring sperm DNA, 5% v/v glycerol, 0.1% Tween20) in a total volume of 20 μL. After incubation of the reaction mixtures at 37° C. for 20 min, the samples were loaded onto a native 5% polyacrylamide gel and electrophoretically separated at 110 V for 60 min. BhcR:DNA-interactions were detected using an Odyssey FC Imaging System (LI-COR Biosciences, Lincoln, USA).

[3] = target: T3, iminosuccinate reductase (ISRed) (Paracoccus denitrificans, UniProt A1B8Z0); assay: Enzyme assay, apparent kinetic parameters of ISRed; assay type: biochemical, Paracoccus denitrificans DSM 413; conditions: 30° C.; for Km: pH 7.5, cofactors measured with 2 mM (2R,3S)-β-hydroxyaspartate and BHAD, read-out: app. KM
T3 construct: His-tag (N); made in house; host or cells: E. coli BL21 AI
Protocol: as §1
The enzyme assay to determine the apparent kinetic parameters of ISRed was performed at 30° C. in a total volume of 250 μL. The reaction mixture contained 100 mM potassium phosphate buffer pH 7.5, 0.2 mM NADH, 0.1 mM PLP, varying amounts of (2R,3S)-β-hydroxyaspartate, and appropriate amounts of the enzymes BHAD and ISRed. Kinetics for iminosuccinate were measured with 15 nM ISRed, and appropriate amounts of (2R,3S)-β-hydroxyaspartate and BHAD to generate the desired concentrations of iminosuccinate at the onset of the reaction. Kinetics for NADH and NADPH were measured with 2 mM (2R,3S)-β-hydroxyaspartate, 214 nM BHAD, 28 nM ISRed, and varying amounts of the respective cofactor.

[4] = target: T4, aspartate-glyoxylate aminotransferase (AGAT) (Paracoccus denitrificans, UniProt A1B8Z3); assay: Enzyme assay, kinetic parameters of AGAT; assay type: biochemical, Paracoccus denitrificans DSM 413; conditions: 30° C., pH 7.5, co-substrate fixed (20 mM L-aspartate, 5 mM glyoxylate, 20 mM oxaloacetate or 30 mM glycine); for Km: read-out: app. KM
T4 construct: His-tag (N); made in house; host or cells: E. coli BL21 AI
T4 sequence (A1B8Z3 1-396): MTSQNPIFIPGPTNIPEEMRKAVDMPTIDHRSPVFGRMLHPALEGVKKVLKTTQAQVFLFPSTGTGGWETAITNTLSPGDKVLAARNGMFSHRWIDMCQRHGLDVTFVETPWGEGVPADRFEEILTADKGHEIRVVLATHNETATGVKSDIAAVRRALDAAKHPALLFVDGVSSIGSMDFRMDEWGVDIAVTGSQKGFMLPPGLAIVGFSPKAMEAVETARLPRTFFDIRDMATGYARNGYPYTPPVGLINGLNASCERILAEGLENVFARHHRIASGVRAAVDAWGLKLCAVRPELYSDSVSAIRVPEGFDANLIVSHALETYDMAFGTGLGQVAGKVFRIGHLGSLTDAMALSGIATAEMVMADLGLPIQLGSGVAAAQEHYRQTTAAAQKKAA
Protocol: as §1
(§2) The enzyme assay to determine the kinetic parameters of AGAT with glyoxylate and L-aspartate as substrates was performed at 30° C. in a total volume of 300 μl. The reaction mixture contained 100 mM potassium phosphate buffer pH 7.5, 0.1 mM PLP, 0.2 mM NADH, varying amounts of the respective substrates, and 32 nM AGAT. Mdh was added in excess as coupling enzyme to convert oxaloacetate into malate. Kinetics for glyoxylate were measured with 20 mM L-aspartate; kinetics for L-aspartate were measured with 5 mM glyoxylate. To determine the kinetic parameters with oxaloacetate and glycine as substrates, the same assay mixture was used and GhrA was added in excess as coupling enzyme to convert glyoxylate into glycolate. […] To determine the kinetic parameters with L-serine or L-glutamate and glyoxylate as substrates, the same assay mixture was used and BHAD, BHAA, and Mdh were added in excess as coupling enzymes. Kinetics for L-serine and L-glutamate were measured with 5 mM glyoxylate.

[5] = test system: expression levels of enzymes of the BHAP; assay: Whole-cell shotgun proteomics, glycolate-grown vs. acetate-grown cells; assay type: cell-based, P. denitrificans; conditions: cells grown on 60 mM glycolate compared to 60 mM acetate, FIG. 4
Protocol: To acquire the proteome of P. denitrificans growing on different carbon sources, 20 mL cultures were grown to mid-exponential phase (OD600 ˜0.5) in minimal medium supplemented with 60 mM acetate or 60 mM glycolate. 4 replicate cultures were grown for each carbon source. Main cultures were inoculated from precultures grown in the same medium in a 1:1,000 dilution. Cultures were harvested by centrifugation at 4,000× g and 4° C. for 15 min. Supernatant was discarded and pellets were washed in 40 mL phosphate buffered saline (PBS; 137 mM NaCl, 2.7 mM KCl, 10 mM Na2HPO4, 1.8 mM KH2PO4, pH 7.4). […] Cell pellets in Eppendorf tubes were snap-frozen in liquid nitrogen and stored at −80° C. until they were used for the preparation of samples for LC-MS analysis and label-free quantification.
For whole cell lysis, cell pellets were first resuspended in 200 μL NH4HCO3 (100 mM supplemented with 5% SDS). […] Protein concentration in samples was determined via Pierce™ BCA assay (Thermo Scientific). […] Peptide mixes were recovered in 2% DMSO and then in 0.5% trifluoracetic acid (TFA) and analyzed via LC-MS on an electrospray ion source-connected Thermo QExactive Plus mass spectrometer (Thermo Scientific). […] Label-free data quantification was performed according to (Nature 2011, 473, 337; Proteomics 2013, 13, 2567; and J Proteome Res 2015, 14, 4472). […]

[6] = substrate: NCC(=O)O; assay: purified protein, by the assay type; conditions: other: enzyme AGAT, 30° C., pH 7.5, co-substrate fixed (20 mM L-aspartate, 5 mM glyoxylate, 20 mM oxaloacetate or 30 mM glycine)
[7] = substrate: N[C@@H](CO)C(=O)O; assay: Enzyme assay, kinetic parameters of AGAT; assay type: biochemical, Paracoccus denitrificans DSM 413; conditions: other: enzyme AGAT, 30° C., pH 7.5, co-substrate fixed (20 mM L-aspartate, 5 mM glyoxylate, 20 mM oxaloacetate or 30 mM glycine)
Protocol: as §1, §2

[8] = substrate: O=C(O)CC(=O)C(=O)O; assay: Enzyme assay, kinetic parameters of AGAT; assay type: biochemical, Paracoccus denitrificans DSM 413; conditions: other: enzyme AGAT, 30° C., pH 7.5, co-substrate fixed (20 mM L-aspartate, 5 mM glyoxylate, 20 mM oxaloacetate or 30 mM glycine)
Protocol: as §1, §2

[9] = substrate: O=CC(=O)O; assay: Enzyme assay, kinetic parameters of AGAT; assay type: biochemical, Paracoccus denitrificans DSM 413; conditions: other: enzyme AGAT, 30° C., pH 7.5, co-substrate fixed (20 mM L-aspartate, 5 mM glyoxylate, 20 mM oxaloacetate or 30 mM glycine)
Protocol: as §1, §2

Molecule: N[C@@H](C(=O)O)[C@H](O)C(=O)O [(2R,3S)-β-hydroxyaspartate]
- app. kcat [1]: 33.11 ± 1.29 s⁻¹
- Km ([1]; read-out: app. KM): 280 ± 30 µM
- app. kcat [2]: 35.01 ± 0.82 s⁻¹
- Km ([2]; read-out: app. KM): 200 ± 20 µM

Molecule: O=CC(=O)O [Glyoxylate]
- effect on binding of BHAR to the promoter region (Pbhc-BhcR complex): binding was decreased

Molecule: N=C(CC(=O)O)C(=O)O [Iminosuccinate]
- Km [3]: 88 ± 10 µM
- app. kcat ([3]; pH 7.5, iminosuccinate generated from (2R,3S)-β-hydroxyaspartate by BHAD): 201.04 ± 10.20 s⁻¹

Molecule: N[C@@H](CC(=O)O)C(=O)O [L-Aspartate]
- app. kcat [4]: 56.36 ± 0.73 s⁻¹
- Km [4]: 2510 ± 100 µM

Molecule: N[C@@H](CCC(=O)O)C(=O)O [L-Glutamate]
- app. kcat [4]: 5.03 ± 0.26 s⁻¹
- Km [4]: 20600 ± 2330 µM

Molecule: NC(=O)C1=CN([C@@H]2O[C@H](COP(=O)(O)OP(=O)(O)OC[C@H]3O[C@@H](n4cnc5c(N)ncnc54)[C@H](O)[C@@H]3O)[C@@H](O)[C@H]2O)C=CC1 [NADH]
- Km [3]: 23 ± 3 µM

Molecule: O=C(O)CO [glycolate]
- expression of all four enzymes of the BHAP [5]: strongly increased expression

Molecule: NADPH
- Km [3]: 330 ± 50 µM

B1: aspartate-glyoxylate aminotransferase (AGAT) (Paracoccus denitrificans PD1222) (protein)
chain: T4 sequence (A1B8Z3 1-396)
notes: His-tag (N); made in house; host or cells: E. coli BL21 AI
- Km [6]: 9520 ± 400 µM
- kcat [6]: 0.76 s⁻¹
- kcat/Km [6]: 79.7 M⁻¹ s⁻¹
- Km [7]: 2100 ± 240 µM
- kcat [7]: 8.82 ± 0.31 s⁻¹
- kcat/Km [7]: 4200 M⁻¹ s⁻¹
- Km [8]: 2900 ± 270 µM
- kcat [8]: 0.76 ± 0.02 s⁻¹
- kcat/Km [8]: 262 M⁻¹ s⁻¹
- Km [9]: 430 ± 20 µM
- kcat [9]: 58.1 ± 0.82 s⁻¹
- kcat/Km [9]: 134000 M⁻¹ s⁻¹
